From patent US7145009B2, “Pirazino(aza)indole derivatives” (priority 1999, dated 2006)
Counter-ions that a name gives are not always drawn. Like-named read-outs stand apart in the source and are kept apart here.

Key:
[1] = target: T1, h5-HT2C receptor (CHO cells) (Homo sapiens, UniProt P28335); test: Functional activity, FLIPR calcium assay, h5-HT2C; format: cell-based; settings: for Emax: CHO, read-out: h5-HT2C Relative Efficacy
T1 construct: expressed in transfected cells; host or cells: CHO cells
T1 sequence (P28335 33-458): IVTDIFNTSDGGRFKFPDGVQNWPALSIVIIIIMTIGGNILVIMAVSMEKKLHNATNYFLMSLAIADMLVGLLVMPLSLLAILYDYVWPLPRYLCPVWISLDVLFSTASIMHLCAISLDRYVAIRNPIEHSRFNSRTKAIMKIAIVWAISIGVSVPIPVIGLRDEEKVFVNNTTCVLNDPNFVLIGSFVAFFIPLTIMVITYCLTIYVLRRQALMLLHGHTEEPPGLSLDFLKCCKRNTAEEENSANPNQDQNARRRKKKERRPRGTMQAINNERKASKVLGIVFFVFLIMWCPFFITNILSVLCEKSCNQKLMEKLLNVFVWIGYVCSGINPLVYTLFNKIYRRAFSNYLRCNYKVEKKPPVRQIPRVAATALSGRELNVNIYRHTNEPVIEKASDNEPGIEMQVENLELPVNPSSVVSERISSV
Procedure: (§1) The functional activity of compounds of formula (I) was assayed using a Fluorimetric Imaging Plate reader (FLIPR):
(§2) CHO cells expressing either the h5-HT2C or h5-HT2A receptors were counted and plated into standard 96 well microtitre plates before the day of testing to give a confluent monolayer. The following day the cells were dye loaded with the calcium sensitive dye Fluo 3-AM by incubation with serum free culture maintenance media containing pluronic acid and Fluo 3-AM dissolved in DMSO at 37° C. in a CO2 incubator at 95% humidity for approximately 90 minutes. Unincorporated dye was removed by washing with Hanks balanced salt solution containing 20 mM HEPES and 2.5 mM probenecid (the assay buffer) using an automated cell washer to leave a total volume of 100 μl/well.
(§3) The drug (dissolved in 50 μl of assay buffer) was added at a rate of 70 μl/sec to each well of the FLIPR 96 well plate during fluorescence measurements. The measurements are taken at 1 sec intervals and the maximum fluorescent signal was measured (approx 10–15 secs after drug addition) and compared with the response produced by 10 μM 5-HT (defined as 100%) to which it is expressed as a percentage response (relative efficacy). Dose response curves were constructed using Graphpad Prism (Graph Software Inc.).

[2] = target: T2, h5-HT2A receptor (CHO cells) (Homo sapiens, UniProt P28223); test: Functional activity, FLIPR calcium assay, h5-HT2A; format: cell-based; settings: for Emax: CHO, read-out: h5-HT2A Relative Efficacy
T2 construct: expressed in transfected cells; host or cells: CHO cells
Procedure: as §1, §2, §3

food intake = settings: rats, literature reports; cited from earlier work
5-HT1A receptors = target: T3, 5-HT1A receptors (Homo sapiens, UniProt P08908); settings: literature report; cited from earlier work
T3 sequence (P08908 1-422): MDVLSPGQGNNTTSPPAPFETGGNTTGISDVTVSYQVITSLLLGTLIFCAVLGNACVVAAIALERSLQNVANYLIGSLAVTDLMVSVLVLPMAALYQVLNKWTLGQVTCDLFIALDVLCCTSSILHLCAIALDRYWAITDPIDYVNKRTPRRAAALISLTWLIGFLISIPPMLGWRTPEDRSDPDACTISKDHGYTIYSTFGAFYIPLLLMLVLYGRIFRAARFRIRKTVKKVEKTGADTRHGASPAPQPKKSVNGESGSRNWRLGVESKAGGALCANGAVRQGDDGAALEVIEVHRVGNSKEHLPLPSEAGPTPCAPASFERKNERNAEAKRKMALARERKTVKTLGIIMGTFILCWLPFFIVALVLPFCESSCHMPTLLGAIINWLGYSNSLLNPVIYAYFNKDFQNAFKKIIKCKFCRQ

[3] = target: T4, 5-HT2c receptors in a CHO cell line (Homo sapiens, UniProt P28335); test: Binding to 5-HT2c receptor, [3H]-5-HT, Method (a); settings: read-out: Ki (2C)
T4 construct: expressed in transfected cells; host or cells: CHO cell line
T4 sequence (P28335 33-458): T1 sequence (P28335 33-458)
Procedure: (§4) The binding of compounds of formula (I) to serotonin receptors was determined in vitro by standard methods. The preparations were investigated in accordance with the assays given hereinafter.
Method (a): For the binding to the 5-HT2c receptor the 5-HT2c receptors were radiolabelled with [^3H]-5-HT. The affinity of the compounds for 5-HT2c receptors in a CHO cell line was determined according to the procedure of D. Hoyer, G. Engel and H. O. Kalkman, European J. Pharmacol., 1985, 118, 13–23.

[4] = test system: 5-HT2c syndrome (splayed limbs, hunched posture, retro-pulsion); test: 5-HT2c syndrome, in vivo efficacy of 5-HT2C agonists; settings: rats, 1 mg/kg s.c.
Procedure: The efficacy of 5-HT2C agonists was assessed for ability to induce a specific syndrome.
The 5-HT2c syndrome is a rapid screening method to assess the in vivo efficacy of 5-HT2c agonists through their ability to induce three specific behaviours in rats. The animals are dosed with either a positive control (mCPP), test compound or vehicle, either s.c. or p.o. The animals are observed on an open bench, typically 30, 60 and 180 minutes and the degree of syndrome is assessed over a two minute period on a scale of 0–3 depending on the presence and severity of splayed limbs, hunched posture and retro-pulsion, the three specific behaviours which constitute the syndrome. Data is analysed using Kruskal-Wallis Analysis of Variance followed with appropriate post-hoc tests. All statistical analysis are conducted using Excel version 7.0 (Microsoft Corp.) and Statistica version 5.0 (Stasoft, Inc.).

[5] = target: T5, human 5-HT2B receptors in a CHO cell line (Homo sapiens, UniProt P41595); test: Binding to 5-HT2B receptor, [3H]-5-HT, Method (b); settings: read-out: Ki (2B)
T5 construct: expressed in transfected cells; host or cells: CHO cell line
Procedure: as §4
Method (b): For the binding to the 5-HT2B receptor the 5-HT2B receptors were radiolabelled with [^3H]-5-HT. The affinity of the compounds for human 5-HT2B receptors in a CHO cell line was determined according to the procedure of K. Schmuck, C. Ullmer, P. Engels and H. Lubbett, FEBS Lett., 1994, 342, 85–90.

[6] = target: T6, 5-HT2A receptors in a CHO cell line (Homo sapiens, UniProt P28223); test: Binding to 5-HT2A receptor, [125I]-DOI, Method (c); settings: read-out: Ki (2A)
T6 construct: expressed in transfected cells; host or cells: CHO cell line
Procedure: as §4
Method (c): For the binding to the 5-HT2A receptor the 5-HT2A receptors were radiolabelled with […]. The affinity of the compounds for 5-HT2A receptors in a CHO cell line was determined according to the procedure of D. J. McKenna and S. J. Peroutka, J. Neurosci., 1989, 9/10, 3482–90.

[7] = FLIPR, CHO cells, Fluo 3-AM, read-out: h5-HT2C EC50

T2 sequence (P28223 whole entry): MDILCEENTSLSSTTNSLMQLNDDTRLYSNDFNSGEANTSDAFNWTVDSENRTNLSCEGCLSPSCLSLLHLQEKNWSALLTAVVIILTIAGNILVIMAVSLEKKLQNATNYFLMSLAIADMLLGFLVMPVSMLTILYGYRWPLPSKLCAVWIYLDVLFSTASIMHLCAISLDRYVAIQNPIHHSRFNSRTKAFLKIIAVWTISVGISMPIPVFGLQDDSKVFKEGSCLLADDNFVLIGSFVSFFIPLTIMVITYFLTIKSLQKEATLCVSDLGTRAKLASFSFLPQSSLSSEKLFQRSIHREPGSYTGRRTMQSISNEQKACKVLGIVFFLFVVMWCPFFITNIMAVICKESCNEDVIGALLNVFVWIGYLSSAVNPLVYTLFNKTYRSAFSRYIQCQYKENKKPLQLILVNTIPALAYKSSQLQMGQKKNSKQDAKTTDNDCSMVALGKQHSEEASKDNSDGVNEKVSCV
T5 sequence (P41595 whole entry): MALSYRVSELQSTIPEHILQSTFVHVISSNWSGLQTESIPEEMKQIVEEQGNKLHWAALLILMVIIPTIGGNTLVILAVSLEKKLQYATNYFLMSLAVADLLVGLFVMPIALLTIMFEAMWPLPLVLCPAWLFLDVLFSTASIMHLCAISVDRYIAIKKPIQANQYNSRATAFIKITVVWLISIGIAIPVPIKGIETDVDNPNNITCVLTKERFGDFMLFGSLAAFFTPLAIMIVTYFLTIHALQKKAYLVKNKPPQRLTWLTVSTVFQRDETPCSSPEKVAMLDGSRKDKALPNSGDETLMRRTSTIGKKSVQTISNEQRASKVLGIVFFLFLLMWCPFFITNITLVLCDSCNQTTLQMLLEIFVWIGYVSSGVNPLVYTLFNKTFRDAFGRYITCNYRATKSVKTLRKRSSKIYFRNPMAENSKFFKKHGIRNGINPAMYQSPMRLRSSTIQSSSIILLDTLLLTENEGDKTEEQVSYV
T6 sequence (P28223 whole entry): as the sequence (P28223 whole entry) above

**Q.** For Clc1ccc2c(c1)N1CCNC[C@H]1C2 [Example 8, (10aR) 7-Chloro-1,2,3,4,10,10a-hexahydropyrazino[1,2-a]indole hydrochloride], which EC50 [1] is on record?
**A.** 3 nM

**Q.** And the Emax [1]?
**A.** 87%

**Q.** And the EC50 [2]?
**A.** 100 nM

**Q.** What about the Emax [2] of the same molecule?
**A.** 59%

**Q.** For Clc1ccc2c(n1)N1CCNCC1C2 (racemic) [Example 6, (RS) 7-Chloro-1,2,3,4,10,10a-6-aza-hexahydropyrazino[1,2-a]-7-indole fumarate], which Emax [1] is on record?
**A.** 100%

**Q.** What about the EC50 [1, 7] of the same molecule?
**A.** 174 nM

**Q.** What about the EC50 [2] of the same molecule?
**A.** 1680 nM

**Q.** What about the Emax [2] of the same molecule?
**A.** 47%

**Q.** For Clc1cccc(N2CCNCC2)c1 [mCPP, m-chlorophenylpiperazine], which “effect on food intake” value (food intake) is on record?
**A.** reduce food intake

**Q.** With Clc1ccc2c(c1)N1CCNCC1C2 (racemic) (as salt: hydrochloride) [Example 1, (RS) 7-Chloro-1,2,3,4,10,10a-hexahydropyrazino[1,2-a]indole hydrochloride] as the molecule, how does the melting point read?
**A.** 235 °C (dec.)

**Q.** With c1ccc2c(c1)CC1CNCCN21 (stereo not shown) [1,2,3,4,10,10a-Hexahydropyrazino[1,2-a]indole] as the molecule, how does the “selectivity for 5-HT1A receptors over 5-HT2 (binding affinity)” value (5-HT1A receptors) read?
**A.** ten fold

**Q.** Which Emax [1] does the source give for Clc1ccc2c(c1)CC1CNCCN21 (racemic) [Example 2, (RS) 8-Chloro-1,2,3,4,10,10a-hexahydropyrazino[1,2-a]indole hydrochloride] here?
**A.** 84%

**Q.** And the EC50 [1, 7]?
**A.** 162 nM

**Q.** And the EC50 [2]?
**A.** 667 nM

**Q.** And the Emax [2]?
**A.** 88%

**Q.** What does the source list for Fc1cc2c(cc1Cl)N1CCNCC1C2 (racemic) [Example 12, (RS) 7-Chloro-8-fluoro-1,2,3,4,10,10a-hexahydropyrazino[1,2-a]indole hemifumarate]?
**A.** EC50 [1]: 22 nM; Emax [1]: 92%; EC50 [2]: 106 nM; Emax [2]: 74%

**Q.** Which melting point does the source give for CSc1ccc2c(c1)N1CCNCC1C2 (racemic) (as salt: fumarate) [Example 13, (RS) 7(Methylthio)-1,2,3,4,10,10a-hexahydropyrazino[1,2-a]indole fumarate] here?
**A.** 196 to 198 °C

**Q.** With C[C@H]1CN2c3cc(Cl)ccc3C[C@@H]2CN1 (as salt: hydrochloride) [Example 11, (3S,10aR) 7-Chloro-3-methyl-1,2,3,4,10,10a-hexahydropyrazino[1,2-a]indole hydrochloride] as the molecule, how does the melting point read?
**A.** 265 °C (dec.)

**Q.** With Clc1ccc2c(n1)N1CCNCC1C2 (racemic) (as salt: fumarate) [Example 6, (RS) 7-Chloro-1,2,3,4,10,10a-6-aza-hexahydropyrazino[1,2-a]-7-indole fumarate] as the molecule, how does the melting point read?
**A.** 148 °C

**Q.** Which results are given for CSc1ccc2c(c1)N1CCNCC1C2 (racemic) [Example 13, (RS) 7(Methylthio)-1,2,3,4,10,10a-hexahydropyrazino[1,2-a]indole fumarate]?
**A.** EC50 [1]: 86 nM; Emax [1]: 87%; EC50 [2]: 176 nM; Emax [2]: 59%

**Q.** For Fc1cc2c(cc1Cl)N1CCNCC1C2 (racemic) (as salt: fumarate) [Example 12, (RS) 7-Chloro-8-fluoro-1,2,3,4,10,10a-hexahydropyrazino[1,2-a]indole hemifumarate], which melting point is on record?
**A.** 195 to 197 °C

**Q.** For Brc1ccc2c(c1)N1CCNCC1C2 (racemic) [Example 4, (RS) 7-Bromo-1,2,3,4,10,10a-hexahydropyrazino[1,2-a]indole hydrochloride], which EC50 [1] is on record?
**A.** 13 nM

**Q.** What about the Emax [1] of the same molecule?
**A.** 100%

**Q.** And the EC50 [2]?
**A.** 244 nM

**Q.** What about the Emax [2] of the same molecule?
**A.** 58%

**Q.** Which Emax [1] does the source give for Clc1cccc2c1CC1CNCCN21 (racemic) [Example 3, (RS) 9-Chloro-1,2,3,4,10,10a-hexahydropyrazino[1,2-a]indole hydrochloride] here?
**A.** 82%

**Q.** And the EC50 [1, 7]?
**A.** 141 nM

**Q.** What about the EC50 [2] of the same molecule?
**A.** 1020 nM

**Q.** What about the Emax [2] of the same molecule?
**A.** 49%

**Q.** What does the source list for C[C@H]1CN2c3cc(Cl)ccc3C[C@@H]2CN1 [Example 11, (3S,10aR) 7-Chloro-3-methyl-1,2,3,4,10,10a-hexahydropyrazino[1,2-a]indole hydrochloride]?
**A.** EC50 [1]: 58 nM; Emax [1]: 92%; EC50 [2]: 527 nM; Emax [2]: 38%

**Q.** With Cc1cc2c(cc1Cl)N1CCNCC1C2 (racemic) [Example 5, (RS) 7-Chloro-8-methyl-1,2,3,4,10,10a-hexahydropyrazino[1,2-a]indole fumarate] as the molecule, how does the EC50 [1] read?
**A.** 20 nM

**Q.** And the Emax [1]?
**A.** 93%

**Q.** What about the EC50 [2] of the same molecule?
**A.** 110 nM

**Q.** And the Emax [2]?
**A.** 87%

**Q.** Which melting point does the source give for Clc1cccc2c1CC1CNCCN21 (racemic) (as salt: hydrochloride) [Example 3, (RS) 9-Chloro-1,2,3,4,10,10a-hexahydropyrazino[1,2-a]indole hydrochloride] here?
**A.** 265 to 269 °C (dec.)

**Q.** Which EC50 [1] does the source give for Clc1ccc2c(c1)N1CCNCC1C2 (racemic) [Example 1, (RS) 7-Chloro-1,2,3,4,10,10a-hexahydropyrazino[1,2-a]indole hydrochloride] here?
**A.** 18 nM

**Q.** What about the Emax [1] of the same molecule?
**A.** 91%

**Q.** And the Ki [3]?
**A.** 31 nM

**Q.** And the “time for which significant pharmacological efficacy is maintained (5-HT2c syndrome)” value [4]?
**A.** at least 180 minutes

**Q.** What about the Ki [5] of the same molecule?
**A.** 32 nM

**Q.** And the EC50 [2]?
**A.** 513 nM

**Q.** What about the Emax [2] of the same molecule?
**A.** 53%

**Q.** What about the Ki [6] of the same molecule?
**A.** 53 nM

**Q.** Which melting point does the source give for Clc1ccc2c(c1)CC1CNCCN21 (racemic) (as salt: hydrochloride) [Example 2, (RS) 8-Chloro-1,2,3,4,10,10a-hexahydropyrazino[1,2-a]indole hydrochloride] here?
**A.** 258 to 262 °C (dec.)

**Q.** Which results are given for Clc1ccc2c(c1)N1CCNC[C@@H]1C2 [Example 7, (10aS) 7-Chloro-1,2,3,4,10,10a-hexahydropyrazino[1,2-a]indole hydrochloride]?
**A.** EC50 [1]: 161 nM; Emax [1]: 86%; EC50 [2]: 144 nM; Emax [2]: 67%

**Q.** With Brc1ccc2c(c1)N1CCNCC1C2 (racemic) (as salt: hydrochloride) [Example 4, (RS) 7-Bromo-1,2,3,4,10,10a-hexahydropyrazino[1,2-a]indole hydrochloride] as the molecule, how does the melting point read?
**A.** 243 to 245 °C
